This is an account of results in patent US10647675B2 (priority 2015, dated 2020).

The subject of experiment [1] is Trichophyton mentagrophytes SM-110. As to the kind of experiment: Antifungal activity evaluation test: minimum inhibitory concentration (MIC), broth dilution by reference to CLSI M38-A2. In kind it is cell-based. Particulars: SM110, read-out: MIC (T. menta.). The procedure, abridged:
(§1)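 Broth microdilution after CLSI M38-A2: 2-fold DMSO dilution series in MOPS-buffered RPMI 1640 pH 7.0, inoculum 2×10^3 cells/mL final. Incubated 35° C for 4 days; MIC (μg/mL) is lowest concentration giving visually ≥80% growth inhibition versus growth control.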
Background: Broth dilution looks for growth in wells or tubes with falling amounts of substance.

Experiment [2] concerns Trichophyton rubrum KD-1130. The description is as above. In kind it is cell-based. Particulars: KD1130, read-out: MIC (T. rubrum). The method in brief: as §1

≈ marks a conversion by molar mass, not a printed value.

As to `COc1ncc(F)cc1-c1cccnc1Oc1ccc(C(F)(F)F)cc1` [I-209, 5-fluoro-2-methoxy-2′-[4-(trifluoromethyl)phenoxy]-3,3′-bipyridine], the MIC in experiment [1] and in experiment [2] was at most 0.1 µg/mL in each case.

For the molecule `COc1ccncc1-c1cccnc1Oc1ccc(C(F)(F)F)cc1` [I-210, 4′-methoxy-2-[4-(trifluoromethyl)phenoxy]-3,3′-bipyridine], the MIC in experiment [1] and in experiment [2] was at most 0.1 µg/mL throughout.

On to `COc1c(Cl)cncc1-c1cccnc1Oc1ccc(C(F)(F)F)cc1` [I-211, 5′-chloro-4′-methoxy-2-[4-(trifluoromethyl)phenoxy]-3,3′-bipyridine], for which the MIC in experiment [1] and in experiment [2] was at most 0.1 µg/mL in each case.

`COc1c(F)cncc1-c1cccnc1Oc1ccc(C(F)(F)F)cc1` [I-212, 5′-fluoro-4′-methoxy-2-[4-(trifluoromethyl)phenoxy]-3,3′-bipyridine]: the minimum inhibitory concentration (MIC) in experiment [1] and in experiment [2] was at most 0.1 µg/mL each time.

As for `COc1cccc(-c2cccnc2Oc2ccc(C(F)(F)F)cc2)n1` [I-213, 6-methoxy-2′-[4-(trifluoromethyl)phenoxy]-2,3′-bipyridine], the MIC in experiment [1] and in experiment [2] was at most 0.1 µg/mL each time.

For the molecule `COc1ccncc1-c1cc(F)cnc1Oc1ccc(C(F)(F)F)cc1` [I-216, 5-fluoro-4′-methoxy-2-[4-(trifluoromethyl)phenoxy]-3,3′-bipyridine], the MIC in experiment [1] and in experiment [2] was at most 0.1 µg/mL in each case.

For `COc1ccncc1-c1cc(Cl)cnc1Oc1ccc(C(F)(F)F)cc1` [I-217, 5-chloro-4′-methoxy-2-[4-(trifluoromethyl)phenoxy]-3,3′-bipyridine], the MIC in experiment [1] and in experiment [2] was 1.56 to 6.25 µg/mL (≈ 4.1 to 16.4 µM) throughout.

As for `COc1nccnc1-c1cccnc1Oc1ccc(C(F)(F)F)cc1` [I-218, 2-methoxy-3-{2-[4-(trifluoromethyl)phenoxy]pyridin-3-yl}pyrazine], the MIC in experiment [1] and in experiment [2] was at most 0.1 µg/mL each time.

For the molecule `COc1ncncc1-c1cccnc1Oc1ccc(C(F)(F)F)cc1` [I-219, 4-methoxy-5-{2-[4-(trifluoromethyl)phenoxy]pyridin-3-yl}pyrimidine], the MIC in experiment [1] and in experiment [2] was at most 0.1 µg/mL each time.

Consider `Cc1nn(C)c(Cl)c1-c1cccnc1Oc1ccc(C(F)(F)F)cc1` [I-220, 3-(5-chloro-1,3-dimethyl-1H-pyrazol-4-yl)-2-[4-(trifluoromethyl)phenoxy]pyridine], for which the MIC in experiment [1] and in experiment [2] was at most 0.1 µg/mL each time.

Regarding `Cn1nccc1-c1cccnc1Oc1ccc(C(F)(F)F)cc1` [I-221, 3-(1-methyl-1H-pyrazol-5-yl)-2-[4-(trifluoromethyl)phenoxy]pyridine], the MIC in experiment [1] and in experiment [2] was 0.2 to 0.78 µg/mL (≈ 0.626 to 2.44 µM) in each case.

Consider `Cn1ncc(Cl)c1-c1cccnc1Oc1ccc(C(F)(F)F)cc1` [I-222, 3-(4-chloro-1-methyl-1H-pyrazol-5-yl)-2-[4-(trifluoromethyl)phenoxy]pyridine], for which the MIC in experiment [1] and in experiment [2] was at most 0.1 µg/mL in each case.

For `COc1c(-c2cccnc2Oc2ccc(C(F)(F)F)cc2)cnn1C` [I-223, 3-(5-methoxy-1-methyl-1H-pyrazol-4-yl)-2-[4-(trifluoromethyl)phenoxy]pyridine], the MIC in experiment [1] and in experiment [2] was 0.2 to 0.78 µg/mL (≈ 0.573 to 2.23 µM) in each case.

`FC(F)(F)c1ccc(Oc2ncccc2-c2cccc3nccnc23)cc1` [I-224, 5-{2-[4-(trifluoromethyl)phenoxy]pyridin-3-yl}quinoxaline]: the MIC in experiment [1] and in experiment [2] was at most 0.1 µg/mL each time.

For the molecule `FC(F)(F)c1ccc(Oc2ncccc2-c2cncc3cccnc23)cc1` [I-225, 8-{2-[4-(trifluoromethyl)phenoxy]pyridin-3-yl}-1,6-naphthyridine], the MIC in experiment [1] and in experiment [2] was at most 0.1 µg/mL each time.

With `FC(F)(F)c1ccc(Oc2ncccc2-c2ccnc3cccnc23)cc1` [I-226, 4-{2-[4-(trifluoromethyl)phenoxy]pyridin-3-yl}-1,5-naphthyridine], the minimal inhibitory concentration (MIC) in experiment [1] and in experiment [2] was at most 0.1 µg/mL throughout.

Regarding `FC(F)(F)c1ccc(Oc2ncccc2-c2cncc3nccnc23)cc1` [I-227, 8-{2-[4-(trifluoromethyl)phenoxy]pyridin-3-yl}pyrido[3,4-b]pyrazine], the MIC in experiment [1] and in experiment [2] was at most 0.1 µg/mL each time.

Consider `FC(F)(F)c1ccc(Oc2ncccc2-c2cccc3ccnn23)cc1` [I-228, 7-{2-[4-(trifluoromethyl)phenoxy]pyridin-3-yl}pyrazolo[1,5-a]pyridine], for which the MIC in experiment [1] and in experiment [2] was at most 0.1 µg/mL throughout.

For the molecule `FC(F)(F)c1ccc(Oc2ncccc2-c2cccn3ccnc23)cc1` [I-229, 8-{2-[4-(trifluoromethyl)phenoxy]pyridin-3-yl}imidazo[1,2-a]pyridine], the results for the MIC in experiment [1] and in experiment [2] were 0.2 to 0.78 µg/mL (≈ 0.563 to 2.2 µM) and 1.56 to 6.25 µg/mL (≈ 4.39 to 17.6 µM), respectively.

`FC(F)(F)c1ccc(Oc2ncccc2-c2cccc3ncnn23)cc1` [I-230, 5-{2-[4-(trifluoromethyl)phenoxy]pyridin-3-yl}[1,2,4]triazolo[1,5-a]pyridine]: the MIC in experiment [1] and in experiment [2] was 0.2 to 0.78 µg/mL (≈ 0.561 to 2.19 µM) throughout.

On to `FC(F)(F)c1ccc(Oc2ncccc2-c2cncc3nccn23)cc1` [I-231, 5-{2-[4-(trifluoromethyl)phenoxy]pyridin-3-yl}imidazo[1,2-a]pyrazine], for which the MIC in experiment [1] and in experiment [2] was 1.56 to 6.25 µg/mL (≈ 4.38 to 17.5 µM) throughout.

For the molecule `Cc1nn2c(c1-c1cccnc1Oc1ccc(C(F)(F)F)cc1)OCC2` [I-232, 6-methyl-7-{2-[4-(trifluoromethyl)phenoxy]pyridin-3-yl}-2,3-dihydropyrazolo[1,5-b]oxazole], the MIC in experiment [1] and in experiment [2] was 0.2 to 0.78 µg/mL (≈ 0.554 to 2.16 µM) throughout.

On to `Cc1nn2c(c1-c1cccnc1Oc1ccc(C(F)(F)F)cc1)OCCCC2` [I-233, 2-methyl-3-{2-[4-(trifluoromethyl)phenoxy]pyridin-3-yl}-5,6,7,8-tetrahydropyrazolo[1,5-b][1,3]oxazepine], for which the MIC in experiment [1] and in experiment [2] was 0.2 to 0.78 µg/mL (≈ 0.514 to 2 µM) in each case.

For `COc1ccncc1-c1cccnc1Oc1ccc(Br)cc1` [I-234, 2-(4-bromophenoxy)-4′-methoxy-3,3′-bipyridine], the MIC in experiment [1] and in experiment [2] was at most 0.1 µg/mL in each case.

`COc1ccncc1-c1cccnc1Oc1ccc(Cl)cc1` [I-235, 2-(4-chlorophenoxy)-4′-methoxy-3,3′-bipyridine]: the MIC in experiment [1] and in experiment [2] was 0.2 to 0.78 µg/mL (≈ 0.639 to 2.49 µM) throughout.

On to `COc1ccncc1-c1cccnc1Oc1ccc(F)cc1` [I-236, 2-(4-fluorophenoxy)-4′-methoxy-3,3′-bipyridine], for which the MIC in experiment [1] and in experiment [2] was 1.56 to 6.25 µg/mL (≈ 5.26 to 21.1 µM) in each case.

Take `COc1ccncc1-c1cccnc1Oc1ccc(OC(F)(F)F)cc1` [I-237, 4′-methoxy-2-[4-(trifluoromethoxy)phenoxy]-3,3′-bipyridine]: the MIC in experiment [1] and in experiment [2] was at most 0.1 µg/mL each time.

As for `COc1ccncc1-c1cccnc1Oc1ccc(OC(F)F)cc1` [I-238, 2-[4-(difluoromethoxy)phenoxy]-4′-methoxy-3,3′-bipyridine], the MIC in experiment [1] and in experiment [2] was 0.2 to 0.78 µg/mL (≈ 0.581 to 2.27 µM) throughout.

As for `COc1ccncc1-c1cccnc1Oc1ccc(SC(F)(F)F)cc1` [I-239, 4′-methoxy-2-{4-[(trifluoromethyl)thio]phenoxy}-3,3′-bipyridine], the MIC in experiment [1] and in experiment [2] was 0.2 to 0.78 µg/mL (≈ 0.529 to 2.06 µM) each time.

Consider `COc1ccncc1-c1cccnc1Oc1ccc(S(F)(F)(F)(F)F)cc1` [I-240, 4′-methoxy-2-[4-(pentafluorosulfanyl)phenoxy]-3,3′-bipyridine], for which the minimal inhibitory concentration (MIC) in experiment [1] and in experiment [2] was at most 0.1 µg/mL each time.

As for `COc1ccncc1-c1cccnc1Oc1ccc(SC)cc1` [I-241, 4′-methoxy-2-[4-(methylthio)phenoxy]-3,3′-bipyridine], the MIC in experiment [1] and in experiment [2] was at most 0.1 µg/mL throughout.

For `COc1ccc(Oc2ncccc2-c2cnccc2OC)cc1` [I-242, 4′-methoxy-2-(4-methoxyphenoxy)-3,3′-bipyridine], the MIC (in general, the lowest concentration found to suppress growth) is 0.2 to 0.78 µg/mL (≈ 0.649 to 2.53 µM) in experiment [1] and 1.56 to 6.25 µg/mL (≈ 5.06 to 20.3 µM) in experiment [2].

As for `COc1ccncc1-c1cccnc1Oc1ccc(C#N)cc1` [I-243, 4-{[4′-methoxy-(3,3′-bipyridin)-2-yl]oxy}benzonitrile], the MIC in experiment [1] and in experiment [2] was 0.2 to 0.78 µg/mL (≈ 0.659 to 2.57 µM) each time.

Consider `COc1ccncc1-c1cccnc1Oc1ccc(C(C)=O)cc1` [I-244], for which the minimal inhibitory concentration (MIC) in experiment [1] and in experiment [2] was 1.56 to 6.25 µg/mL (≈ 4.87 to 19.5 µM) throughout.

For the molecule `CCOC(=O)c1ccc(Oc2ncccc2-c2cnccc2OC)cc1` [I-245], the minimum inhibitory concentration (MIC) in experiment [1] and in experiment [2] was at most 0.1 µg/mL in each case.

For the molecule `COc1ccncc1-c1cccnc1Oc1ccc(C=O)cc1` [I-246], the MIC in experiment [1] and in experiment [2] was 1.56 to 6.25 µg/mL (≈ 5.09 to 20.4 µM) each time.

Regarding `COc1ccncc1-c1cccnc1Oc1ccc(C(OS(=O)(=O)c2ccc(C)cc2)C(F)(F)F)cc1` (stereo not drawn) [I-248], the MIC in experiment [1] and in experiment [2] was 1.56 to 6.25 µg/mL (≈ 2.94 to 11.8 µM) in each case.

With `COc1ccncc1-c1cccnc1Oc1ccc(CC(F)(F)F)cc1` [I-249, 4′-methoxy-2-[4-(2,2,2-trifluoroethyl)phenoxy]-3,3′-bipyridine], the MIC in experiment [1] and in experiment [2] was 0.2 to 0.78 µg/mL (≈ 0.555 to 2.16 µM) throughout.

For the molecule `COCc1ccc(Oc2ncccc2-c2cnccc2OC)cc1` [I-251, 4′-methoxy-2-[4-(methoxymethyl)phenoxy]-3,3′-bipyridine], the MIC in experiment [1] and in experiment [2] was 1.56 to 6.25 µg/mL (≈ 4.84 to 19.4 µM) in each case.

In the case of `COc1ccncc1-c1cccnc1Oc1ccc(C)cc1` [I-252, 4′-methoxy-2-(p-tolyloxy)-3,3′-bipyridine], the MIC in experiment [1] and in experiment [2] was 0.2 to 0.78 µg/mL (≈ 0.684 to 2.67 µM) in each case.

As for `CCc1ccc(Oc2ncccc2-c2cnccc2OC)cc1` [I-253, 2-(4-ethylphenoxy)-4′-methoxy-3,3′-bipyridine], the MIC in experiment [1] and in experiment [2] was at most 0.1 µg/mL throughout.

In the case of `CCCc1ccc(Oc2ncccc2-c2cnccc2OC)cc1` [I-254, 4′-methoxy-2-(4-propylphenoxy)-3,3′-bipyridine], the MIC in experiment [1] and in experiment [2] was at most 0.1 µg/mL each time.
